Patent US11021481B2, “Substituted isoindolin-1-ones and 2,3-dihydro-1h-pyrrolo[3,4-c]pyridin-1-ones as HPK1 antagonists” (Nimbus Saturn, Inc., priority 2019, dated 2021)

biological target: HPK1 (Homo sapiens (Human), UniProt Q92918); experiment: HPK1 biochemical enzyme assay (microfluidic mobility shift assay); conditions: 1.5 nM HPK1, ATP 1 mM final, 30 min preincubation, 60 min at RT, Caliper EZ Reader; read-out: HPK1 1000UMATP caliper IC50
How it was run: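 Mobility shift readout of HPK1 activity after a 60 min RT reaction with 1 mM ATP, 1 μM substrate and 5 mM MgCl2. Enzyme/substrate mix was first exposed to compounds for 30 min, using ten-point curves topping at 3 μM final.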

Chain of HPK1 (Q92918 whole entry): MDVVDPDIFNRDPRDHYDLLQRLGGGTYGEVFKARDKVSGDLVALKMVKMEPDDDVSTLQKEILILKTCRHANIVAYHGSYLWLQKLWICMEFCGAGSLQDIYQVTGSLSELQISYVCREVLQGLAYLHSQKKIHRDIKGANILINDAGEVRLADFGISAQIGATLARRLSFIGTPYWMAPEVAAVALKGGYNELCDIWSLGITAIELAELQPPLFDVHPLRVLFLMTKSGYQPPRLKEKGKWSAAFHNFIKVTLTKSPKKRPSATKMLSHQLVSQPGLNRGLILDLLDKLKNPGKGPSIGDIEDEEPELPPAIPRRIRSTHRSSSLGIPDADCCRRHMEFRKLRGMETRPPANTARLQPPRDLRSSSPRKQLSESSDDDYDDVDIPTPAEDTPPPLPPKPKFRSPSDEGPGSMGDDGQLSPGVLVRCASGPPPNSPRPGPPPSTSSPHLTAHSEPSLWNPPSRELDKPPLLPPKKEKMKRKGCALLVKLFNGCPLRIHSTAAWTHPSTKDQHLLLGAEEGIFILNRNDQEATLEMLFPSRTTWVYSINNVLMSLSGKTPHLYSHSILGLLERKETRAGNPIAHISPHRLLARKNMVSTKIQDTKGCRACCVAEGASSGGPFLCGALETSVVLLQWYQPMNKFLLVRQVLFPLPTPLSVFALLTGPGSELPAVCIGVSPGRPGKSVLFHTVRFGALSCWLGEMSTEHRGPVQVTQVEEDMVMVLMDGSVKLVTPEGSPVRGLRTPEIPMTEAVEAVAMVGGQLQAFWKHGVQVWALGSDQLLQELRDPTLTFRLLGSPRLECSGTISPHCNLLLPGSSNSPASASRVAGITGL

Row | IC50 | Structure (SMILES)
1 | < 100 nM | COC[C@@H]1CN(c2ccc(Nc3cnc(-c4ccnc5c4ccn5C)c4c3C(=O)NC4)nc2)CC[C@@H]1O [I-436, 7-((5-((3S,4S)-4-hydroxy-3-(methoxymeth-yl)piperidin-1-yl)pyridin-2-yl)amino)-4-(1-methyl-1H-pyrrolo[2,3-b]pyridin-4-yl)-2,3-dihydro-1H-pyrrolo[3,4-c]pyridin-1-one]
2 | < 100 nM | CN1CC(O)(C2CCCN(c3ccc(Nc4ccc(-c5cnc6cc(F)ccn56)c5c4C(=O)NC5)nc3)C2)C1 (stereo in doubt) [I-679, (S)-4-(7-fluoroimidazo [1,2-a]pyridin-3-yl)-7-((5-(3-(3-hydroxy-1-methylazetidin-3-yl)piperidin-1-yl)pyridin-2-yl)amino)isoin-dolin-1-one]
3 | < 100 nM | Cn1ccc2c(-c3ncc(Nc4ccc(N5CCO[C@H](C(C)(C)O)C5)cn4)c4c3CNC4=O)cccc21 [I-484, 7-[[5-[(2S)-2-(1-hydroxy-1-methyl-ethyl)morpholin-4-yl]-2-pyridyl]amino]-4-(1-methylindol-4-yl)-2,3-dihydropyrrolo [3,4-c]pyridin-l-one]
4 | < 100 nM | Cn1cnc2c(-c3ccc(Nc4ccc(N5CCC(O)CC5)cn4)c4c3CNC4=O)cccc21 [I-173, 7-[[5-(4-hydroxy-1-piperidyl)-2-pyridyl]amino]-4-(1-methylbenz-imidazol-4-yl)isoindolin-1-one]
5 | 100 to 1000 nM | Cc1[nH]c2ncccc2c1-c1ncc(Nc2ccc(N3CCN(C)CC3)cn2)c2c1CNC2=O [I-15]
6 | < 100 nM | CN1CCN(c2ccc(Nc3ccc(-c4ccn5ncccc45)c4c3C(=O)NC4)nc2)CC1 [I-256, 7-((5-(4-methylpiperazin-1-yl)pyridin-2-yl)amino)-4-(pyrrolo[1,2-b]pyridazin-5-yl)isoindolin-1-one]
7 | < 100 nM | CC(C)(O)[C@@H]1CCCN(c2ccc(Nc3ccc(-c4cnc5cc(F)ccn45)c4c3C(=O)NC4)nc2)C1 [I-202]
8 | < 100 nM | CN(C)Cc1nc(Nc2ccc(-c3ccnc4c3ccn4C)c3c2C(=O)NC3)ccc1[C@H]1CCOC1 [I-546, (R)-7-((6-((dimethylamino)-methyl)-5-(tetrahydrofuran-3-yl)pyridin-2-yl)amino)-4-(1-methyl-1H-pyrrolo[2,3-b]pyridin-4-yl)isoindolin-1-one]
9 | < 100 nM | COCCn1ccc2c(-c3ccc(Nc4ccc(N5CCN(C)CC5)cn4)c4c3CNC4=O)ccnc21 [I-47, 4-[1-(2-methoxyethyl)pyrrolo[2,3-b]pyridin-4-yl]-7-[[5-(4-methylpiperazin-1-yl)-2-pyridyl]amino] isoindolin-1-one]
10 | < 100 nM | O=C1NCc2c(-c3cnc4cnccn34)ccc(Nc3ccc(N4CCC[C@@H](O)C4)cn3)c21 [I-171]
11 | < 100 nM | Cc1ccn2c(-c3ncc(Nc4ccc(N5CCO[C@@H](C(C)(C)O)C5)cn4)c4c3CNC4=O)cnc2c1F [I-467, 4-(8-fluoro-7-methyl-imidazo[1,2-a]pyridin-3-yl)-7-[[5-[(2R)-2-(1-hydroxy-1-methyl-ethyl)morpholin-4-yl]-2-pyridyl]amino]-2,3-dihydropyrrolo [3,4-c]pyridin-l-one]
12 | < 100 nM | Cc1ccc2c(-c3ccc(Nc4ccc(N5CCN(C)CC5)cn4)c4c3CNC4=O)c[nH]c2n1 [I-29, 7-[[5-(4-methylpiperazin-1-yl)-2-pyridyl]amino]-4-(6-methyl-1H-pyrrolo[2,3-b]pyridin-3-yl)-isoindolin-1-one]
13 | < 100 nM | Cn1ccc2c(-c3ncc(Nc4ccc([C@@H]5CCOC5)c(CN5CC[C@@H](O)C5)n4)c4c3CNC4=O)ccnc21 [I-809, 7-((6-(((R)-3-hydroxypyrroli-din-1-yl)methyl)-5-((S)-THF-3-yl)pyridin-2-yl)amino)-4-(1-methyl-1H-pyrrolo[2,3-b]pyridin-4-yl)-2,3-dihydro-1H-pyrrolo[3,4-c]pyridin-1-one]
14 | < 100 nM | O=C1NCc2c(-c3cnc4cc(F)ccn34)ccc(Nc3ccc([C@H]4CCOC4)c(CN4CCCC4)n3)c21 [I-515, (R)-4-(7-fluoroimidazo [1,2-a]pyridin-3-yl)-7-((6-(pyrrolidin-1-ylmethyl)-5-(tetrahydrofuran-3-yl)pyridin-2-yl)amino)isoin-dolin-1-one]
15 | < 100 nM | O=C1NCc2c(-c3cnn4cccnc34)ccc(Nc3ccc(N4CCC(O)CC4)cn3)c21 [I-157, 7-[[5-(4-hydroxy-1-piperidyl)-2-pyridyl]amino]-4-pyrazolo[1,5-a]pyrimidin-3-yl-isoindolin-1-one]
16 | < 100 nM | CC(C)(O)[C@@H]1CN(c2ccc(Nc3ccc(-c4cnc5cc(C(F)F)ccn45)c4c3C(=O)NC4)nc2)CCO1 [I-492, 4-[7-(difluoromethyl)-imidazo[1,2-a]pyridin-3-yl]-7-[[5-[(2S)-2-(1-hydroxy-1-methyl-ethyl)morpholin-4-yl]-2-pyridyl]amino]isoindolin-1-one]
17 | > 1000 nM | O=C1NCc2c(-c3cnc4cc(F)ccn34)ccc(Nc3cccc(N4CC(O)C4)n3)c21 [I-323, 4-(7-fluoroimidazo [1,2-a]pyridin-3-yl)-7-((6-(3-hydroxyazeti-din-1-yl)pyridin-2-yl)amino)isoin-dolin-1-one]
18 | < 100 nM | CN(C)Cc1nc(Nc2ccc(-c3cnc4cc(F)ccn34)c3c2C(=O)NC3)ccc1C1(C)CCOC1 (stereo not shown) [I-843, 7-((6-((dimethylamino)-methyl)-5-(3-methylTHF-3-yl)pyridin-2-yl)amino)-4-(7-fluoroimidazo [1,2-a]pyridin-3-yl)isoindolin-1-one]
19 | 100 to 1000 nM | Cc1[nH]c2ccccc2c1-c1ncc(Nc2ccc(N3CCN(C)CC3)cn2)c2c1CNC2=O [I-11, 4-(2-methyl-1H-indol-3-yl)-7-[[5-(4-methylpiperazin-1-yl)-2-pyridyl]amino]-2,3-dihydropyrrolo [3,4-c]pyridin-1-one]
20 | 100 to 1000 nM | C[C@@H](c1nc(Nc2ccc(-c3cnc4cc(F)ccn34)c3c2C(=O)NC3)ccc1[C@H]1CCOC1)N(C)C (single isomer, unassigned) [I-818]
21 | < 100 nM | CN(C)Cc1nc(Nc2cnc(-c3ccnc4c3ccn4C)c3c2C(=O)NC3)ccc1N1CCO[C@@H](C(C)(C)O)C1 [I-769, (R)-7-((6-((dimethylamino)-methyl)-5-(2-(2-hydroxypropan-2-yl)morpholino)pyridin-2-yl)amino)-4-(1-methyl-1H-pyrrolo[2,3-b]pyridin-4-yl)-2,3-dihydro-1H-pyrrolo[3,4-c]pyridin-1-one]
22 | 100 to 1000 nM | CN1CCN(c2ccc(Nc3ccc(-c4ccnc5ccn(C)c45)c4c3C(=O)NC4)nc2)CC1 [I-66, 7-[[5-(4-methylpiperazin-1-yl)-2-pyridyl]amino]-4-(1-methylpyrrolo [3,2-b]pyridin-7-yl)isoindolin-1-one]

Row | Structure (SMILES) | IC50
23 | O=C1NCc2c(-c3cnc4cnccn34)ccc(Nc3ccc(N4[C@@H]5CC[C@H]4C[C@H](O)C5)cn3)c21 [I-320, 7-((5-((1R,3s,5S)-3-hydroxy-8-azabicyclo [3,2.1]octan-8-yl)pyridin-2-yl)amino)-4-(imidazo[1,2-a]pyrazin-3-yl)isoindolin-1-one] | < 100 nM
24 | COc1cccn2c(-c3ncc(Nc4ccc(N5CCC[C@H](C(C)(C)O)C5)cn4)c4c3CNC4=O)cnc12 [I-461, 7-[[5-[(3S)-3-(1-hydroxy-1-methylethyl)-1-piperipyl]-2-pyridyl]amino]-4-(8-methoxyimi-dazo[1,2-a]pyridin-3-yl)-2,3-dihydro-pyrrolo[3,4-c]pyridin-1-one] | < 100 nM
25 | O=C1NCc2c(-c3cnc4cc(F)ccn34)ccc(Nc3ccc([C@@H]4CCOC4)c(CN4CC[C@@H](F)C4)n3)c21 (stereo in doubt) [I-742] | < 100 nM
